In one data set the test system is FFAs. Particulars: hypoglycemic activity, File S1, cited from earlier work.
Data set [1] deals with free fatty acids released in adipocytes. The experiment in a line: Insulin-mimetic action: inhibition of free fatty acid release from epinephrine-stimulated adipocytes. The class given is cell-based. The settings on record: rat adipocytes, 30 min with compound at 37°C, then 3 hours with epinephrine; 50% inhibition of FFA release; read-out: IC50 exp (±S.D.) (FFAs). The protocol:
All rats (250–300 g) and mice (22–25 g) were housed in a temperature controlled room (24°C±1°C) and they had received standard food pellets and tap water […]. At the end of the study (24 h after CIN induction), all animal test subjects were euthanized by inhalation of ether anesthesia. Rat adipocytes were prepared from the fat pads of male Wistar rats by collagenase digestion according to the method of Rodbell. Freshly prepared adipocytes were incubated (37°C, 30 min) with solutions of the vanadium compounds at three concentrations (0.1, 0.5 and 1 mM in isotonic saline and 5 mM glucose), followed by 3 hours of incubation with epinephrine. The inhibitory effect was determined in terms of the decrease of the amount free fatty acids released in adipocytes. All assays were performed in duplicate or triplicate. […] Investigations were carried out on mongrel white mice.

Details of data set [2]: method as in PMID 12888267. The settings on record: cited from earlier work.
In another data set the test system is rat. Put plainly: Acute toxicity study, rapid method of Prozorovskii (LD50). Particulars: for LD50exp: range in brackets; for Class in AD (experimental toxicity class): rat, in vivo. The data set is classed as in vivo. The arrangement: LD50exp: unit not given here. The protocol: Acute toxicity studies were carried out by rapid method of Prozorovskii. […] The following criteria were used for the evaluation of acute toxicity: the number of dead animals, the timing of their death, LD50 through the night, the picture of intoxication, behavioral change and autopsy results of the survived animals after 14 days. Clinical examination was performed for each animal during the first hour after administration of the substance, and weekly thereafter. Clinical examination included a detailed inspection of the animal in cage, in hands and in the open area. The manifestation and severity of intoxication were noted. Examination of animals in order to identify mortality or signs of variations in health status was conducted on a daily basis. Integrated indicators were assessed weekly during the entire period of observation. Death of animals was recorded daily during entire study period. General condition and behavior of animals as well as type of toxic manifestations, including their development and termination were recorded daily during the procedures for monitoring and inspection of individual animals.

Data set [3] concerns adrenaline hyperglycemia in mongrel white mice. The experiment in a line: In vivo hypoglycemic activity in the adrenaline hyperglycemia model. The settings on record: oral, 1/10 of the LD50, 1 hour prior to epinephrine hydrochloride 1 mg/kg s.c. The protocol:
Determination of hypoglycemic activity of 5 complexes was performed on 75 mice. Adrenaline hyperglycemia was caused by subcutaneous administration of 0.1% epinephrine hydrochloride (AGH) at a dose of 1 mg/kg. […] In each experimental group there were 3 animals and 3 replicates were performed. The content of glucose in whole blood was determined at 0.5, 1 and 2 hours after administration of AGH or glucose using portable glucose monitoring systems, OneTouch Ultra test strip and OneTouch Ultra and Clever check TD4209 and strips Clever check TD4209.

Where two headings read alike, the source gives them in different places.

As to `O=C1[O][Zn+2]2([O]C(=O)c3cccc[n+]32)[n+]2ccccc21` [Zn(pic)2], the half-maximal inhibitory concentration (IC50) (usually the concentration that inhibits the measured activity by half) with FFAs (ref 7 (Yoshikawa et al. 2002)) was 640 µM.

With `CC(=O)/C=C(/C)[O-].CC(=O)/C=C(/C)[O-].[O]=[V+2]` [Complex II, Bis(acetylacetonato)oxo-vanadium(IV)], the concentration for half-maximal inhibition (IC50) in data set [1] was 950 ± 90 µM. With `O=S1(=O)[O][Zn+2][O]1` [ZnSO4], in the data set with FFAs (ref 8 (Yoshikawa et al. 2001)), the IC50 is 810 µM.

Regarding `O=C1[O][V+4]2(=[O])([O]C(=O)c3cccc[n+]32)[n+]2ccccc21` [VO(pic)2], the IC50 in the data set with FFAs (ref 3 (Sakurai et al. 2000)) is 590 µM. Regarding `Cc1occc(=O)c1[O][Zn+2][O]c1c(C)occc1=O` [Zn(maltolat)2], the IC50 in the data set on FFAs (ref 7 (Yoshikawa et al. 2002)) was 590 µM. Regarding `COC(=O)[C@@H](Cc1c[nH]c2ccccc12)NC(=O)c1ccc2[n+](c1)[V+4]1(=[O])([O]C2=O)[O]C(=O)c2ccc(C(=O)N[C@H](Cc3c[nH]c4ccccc34)C(=O)OC)c[n+]21` [[VIVO(pic-trpMe)2]], the IC50 in the data set with FFAs (ref 9 (Nilsson et al. 2009)) was 410 µM.

As to `O=C([O-])C([O-])C([O-])C(=O)[O-].O=C([O-])C([O-])C([O-])C(=O)[O-].[K+].[K+].[K+].[K+].[O]=[V+2].[O]=[V+2]` (stereo not drawn) [Complex IV, Potassium bis((m2-d,d-tartrato-O,O′,O′′,O′′′)-oxo-vanadium(IV)) dihydrate], the IC50 in data set [1] came to 950 ± 100 µM.

As for `O=C1[O][V+4]2(=[O])([O]C(=O)c3ccc(I)c[n+]32)[n+]2cc(I)ccc21` [VO(5ipa)2], the 50% inhibitory concentration (IC50) in the data set on FFAs (ref 3 (Sakurai et al. 2000)) was 450 µM.

`Cc1occc(=O)c1[O-].Cc1occc(=O)c1[O-].[O]=[V+2]` [BMOV, bis(maltolato)oxovanadium(IV)]: in data set [2], the median lethal dose (LD50) (commonly the dose expected to kill half of the subjects tested) was 220 mg/kg. The IC50 with FFAs (ref 5 (Sakurai et al. 2010)) is 676 µM. As to `O=S(=O)(O)[O][V+4]123(=[O])[O]c4ccccc4C[N+]1(Cc1cccc[n+]12)Cc1cccc[n+]13` (stereo not drawn) [[VIVO(bp-O)HSO4]], the concentration for half-maximal inhibition (IC50) with FFAs (ref 9 (Nilsson et al. 2009)) is 3850 µM. On to `O.O.O.O.O.O.O.O.[Na+].[O]=[V-]12([O][O]1)[O][O]2.c1ccc(-c2ccccn2)nc1` [Complex I, Sodium(2,2′-Bipyridyl) oxo-diperoxovanadate(V) octahydrate], for which, in the data set on rat, the LD50exp is on record as 108(95–122) and the “Class in AD (experimental toxicity class)” value (from here on “Class in AD”) turned out to be 3. For the same molecule, in data set [3], the “decreasing blood glucose level” value is recorded as 50%. In data set [1], the 50% inhibitory concentration (IC50) was 720 ± 90 µM. For the molecule `CC(C)[C@H](C=O)[NH][Zn+2][NH][C@H](C=O)C(C)C` [Zn(L-Val)2], the 50% inhibitory concentration (IC50) with FFAs (ref 8 (Yoshikawa et al. 2001)) is 770 µM. `Cc1ccc[n+]2c1C(=O)[O][V+4]21(=[O])[O]C(=O)c2c(C)ccc[n+]21` [VO(3mpa)2]: in the data set on FFAs (ref 3 (Sakurai et al. 2000)), the IC50 is 660 µM. Turning to `Cc1cccc2[n+]1[V+4]1(=[O])([O]C2=O)[O]C(=O)c2cccc(C)[n+]21` [VO(6mpa)2], the half-maximal inhibitory concentration (IC50) in the data set on FFAs (ref 3 (Sakurai et al. 2000)) is 490 µM. `CCC1=C2[O][V+4]3(=[O])([O]C4=C(CC)OC=C[C@@H]4[O]3)[O][C@H]2C=CO1` [bis(ethylmaltolato)oxovanadium(IV)]: the 50% inhibitory concentration (IC50) with FFAs (ref 5 (Sakurai et al. 2010)) was 632 µM. In the case of `O=C1[O][V+4]2(=[O])([O]C(=O)c3cccc(O)[n+]32)[n+]2c(O)cccc21` [VO(6hpa)2], the 50% inhibitory concentration (IC50) in the data set with FFAs (ref 1 (Sakurai, Yasui 2003)) is 800 µM. Take `[O]=[V+4]12([O][n+]3ccccc3[S]1)[O][n+]1ccccc1[S]2` [VO(opt)2]: the 50% inhibitory concentration (IC50) in the data set with FFAs (ref 6 (Sakurai et al. 1999)) was 190 µM. With `[O]=[V+4]12([O]C3=COC=C[C@@H]3[O]1)[O]C1=COC=C[C@H]1[O]2` [bis(3-hydroxy-4-pyronato)oxovanadium(IV)], the IC50 with FFAs (ref 2 (Sakurai et al. 2008)) was 1180 µM. Turning to “(S)-[2-(N-salicylidene) amino-propionate] oxovanadium(IV) monohydrate [Complex V]”, in the data set with rat, the LD50exp is on record as 245(210–280) and the “Class in AD” value is listed as 3. Also, in data set [3], the “decreasing blood glucose level” value turned out to be 26%. For the same molecule, the concentration for half-maximal inhibition (IC50) in data set [1] was found to be 810 ± 60 µM. As for `Cc1cccc2[n+]1[Zn+2]1([O]C2=O)[O]C(=O)c2cccc(C)[n+]21` [Zn(6mpa)2], in the data set with FFAs (ref 7 (Yoshikawa et al. 2002)), the IC50 is 310 µM.

With `CCc1cccc2[n+]1[V+4]1(=[O])([O]C2=O)[O]C(=O)c2cccc(CC)[n+]21` [VO(6epa)2], the IC50 in the data set with FFAs (ref 4 (Sasagawa et al. 2002)) was 810 µM.

For `O=C(N[C@H](Cc1c[nH]c2ccccc12)C(=O)O)c1ccc2[n+](c1)[V+4]1(=[O])([O]C2=O)[n+]2ccccc2C[N+]1(Cc1ccccn1)Cc1ccccn1` [[VVO(pic-trpH)tpa]2+], the half-maximal inhibitory concentration (IC50) in the data set on FFAs (ref 9 (Nilsson et al. 2009)) is 1840 µM. As to `C[C@@H](O)[C@H]1[NH][Zn+2]2([NH][C@H]([C@@H](C)O)C(=O)[O]2)[O]C1=O` [Zn(L-Thr)2], in the data set on FFAs (ref 8 (Yoshikawa et al. 2001)), the IC50 is 540 µM.

As to `CCCCCC1=C2[O][V+4]3(=[O])([O]C4=C(CCCCC)OC(C)=C(OC)C4=[O+]3)[O+]=C2C(OC)=C(C)O1` [VO(alx)2], in the data set on FFAs (ref 5 (Sakurai et al. 2010)), the half-inhibitory concentration (IC50) was 553 µM. Consider `O=C1[O][V+4]2(=[O])([O]C(=O)c3c(O)ccc[n+]32)[n+]2cccc(O)c21` [VO(3hpa)2], for which, in the data set on FFAs (ref 1 (Sakurai, Yasui 2003)), the IC50 is 470 µM.

For the molecule `O=C1[O][V+4]2(=[O])([O]C(=O)c3cc(Cl)cc[n+]32)[n+]2ccc(Cl)cc21` [VO(4clpa)2], in the data set on FFAs (ref 3 (Sakurai et al. 2000)), the 50% inhibitory concentration (IC50) was 700 µM.

For `O=S(=O)([O-])[O-].[O]=[V+2].c1ccc(CN(Cc2ccccn2)Cc2ccccn2)nc1` [[VIVO(tpa)SO4]], the IC50 with FFAs (ref 9 (Nilsson et al. 2009)) is 4600 µM. As for `CC(C)(C)OC(=O)[N-]C(=N)N.CC(C)(C)OC(=O)[N-]C(=N)N.[O]=[V+2]` [Complex III, Bis{tert-butyl[amino(imino)methyl]carbamato} oxovanadium (IV)], in the data set with rat, the LD50exp is 190(170–210) and the “Class in AD” value was 3. For the same molecule, the “decreasing blood glucose level” value in data set [3] stood at 42%. The 50% inhibitory concentration (IC50) in data set [1] is 540 ± 70 µM. Consider `O=C[C@@H]1CC(=O)[NH][Zn@@+2]2([NH]C(=O)C[C@H](C=O)[NH]2)[NH]1` [Zn(L-Asn)2], for which the half-maximal inhibitory concentration (IC50) with FFAs (ref 8 (Yoshikawa et al. 2001)) is 650 µM. For `O=S(=O)([O-])[O-].[O]=[V+2]` [VOSO4, Vanadyl sulfate], in the data set on rat, the LD50exp is 448(356–540) and the “Class in AD” value is 3. Further, the “decreasing blood glucose level” value in data set [3] was 16%. In the data set on FFAs (ref 1 (Sakurai, Yasui 2003)), the half-maximal inhibitory concentration (IC50) was 840 µM. In data set [1], the IC50 was 1000 ± 90 µM. As for `O=C[C@H]1CCC[N]1[Zn+2][N]1CCC[C@@H]1C=O` [Zn(L-Pro)2], the IC50 in the data set with FFAs (ref 8 (Yoshikawa et al. 2001)) was 890 µM.

Source of the values: PMC4109918, “Design, Synthesis and Pharmacological Evaluation of Novel Vanadium-Containing Complexes as Antidiabetic Agents” (PLoS ONE, 2014).
